Results from patent publication US20260355196A1, “INHIBITORS AND DEGRADERS OF PIP4K PROTEIN” (Larkspur Biosciences, Inc., priority 2023, published 2026).

biological target: T1, PIP4K2C (Homo sapiens, UniProt Q8TBX8); experiment: Enzyme Binding Assay (KINOMEscan): active site-directed competition binding to an immobilized ligand; set-up: purchased Eurofins DiscoverX, San Diego, CA 87-0007-1094; conditions: 11-point dose response, duplicate, top concentration 5 micromolar; read-out: Pip4k2c Kd: IC50
T1 sequence (Q8TBX8 1-421): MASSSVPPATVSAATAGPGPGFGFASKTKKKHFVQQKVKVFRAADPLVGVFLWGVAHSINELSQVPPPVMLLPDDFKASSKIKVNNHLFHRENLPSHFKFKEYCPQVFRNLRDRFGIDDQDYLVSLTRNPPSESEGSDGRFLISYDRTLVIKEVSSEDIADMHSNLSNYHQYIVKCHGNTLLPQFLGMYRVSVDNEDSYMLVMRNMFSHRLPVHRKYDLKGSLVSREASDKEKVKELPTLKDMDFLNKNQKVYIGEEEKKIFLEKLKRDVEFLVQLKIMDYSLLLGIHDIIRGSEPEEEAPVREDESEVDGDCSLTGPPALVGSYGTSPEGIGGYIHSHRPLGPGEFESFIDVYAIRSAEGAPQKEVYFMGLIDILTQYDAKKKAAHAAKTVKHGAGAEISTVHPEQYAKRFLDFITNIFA
Procedure, shortened: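 Active site-directed competition binding against an immobilized ligand. 11-point dose-response in duplicate, top concentration 5 micromolar; IC50 from a Hill equation fitted by the Levenberg-Marquardt algorithm.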

| SMILES | IC50 |
| --- | --- |
| CC(=O)N1CCC(Nc2ncc(Cl)c(-c3cccc(-c4ccc[nH]c4=O)c3)n2)CC1 [Compound 137, 3-(3-(2-((1-acetylpiperidin-4-yl)amino)-5-chloropyrimidin-4-yl)phenyl)pyridin-2(1H)-one] | < 500 nM |
| CNC(=O)[C@H]1CC[C@@H](Nc2ncc(Cl)c(-c3cccc(-c4ccc[nH]c4=O)c3)n2)CC1 [Compound 138, cis-(1s,4s)-4-((5-chloro-4-(3-(2-oxo-1,2-dihydropyridin-3-yl)phenyl)pyrimidin-2-yl)amino)-N-methylcyclohexane-1-carboxamide] | < 500 nM |
| CNC(=O)[C@H]1C[C@H](Nc2ncc(Cl)c(-c3cccc(-c4ccc[nH]c4=O)c3)n2)C1 [Compound 139, trans-(1r,3r)-3-((5-chloro-4-(3-(2-oxo-1,2-dihydropyridin-3-yl)phenyl)pyrimidin-2-yl)amino)-N-methylcyclobutane-1-carboxamide] | < 500 nM |
| CNC(=O)[C@H]1C[C@H](Nc2ncc(Cl)c(-c3cccc(-c4ccc(F)cc4)n3)n2)C1 [Compound 140, trans-(1r,3r)-3-((5-chloro-4-(6-(4-fluorophenyl)pyridin-2-yl)pyrimidin-2-yl)amino)-N-methylcyclobutane-1-carboxamide] | < 500 nM |
| CC(=O)N1CCC[C@H](Nc2ncc(Cl)c(-c3ccnc(-c4ccc(F)cc4)c3)n2)C1 [Compound 141, (S)-1-(3-((5-chloro-4-(2-(4-fluorophenyl)pyridin-4-yl)pyrimidin-2-yl)amino)piperidin-1-yl)ethan-1-one] | < 500 nM |
| CC(=O)N[C@H]1CC[C@H](Nc2ncc(Cl)c(-c3ccnc(-c4ccc(F)cc4)c3)n2)CC1 [Compound 142, trans-N-((1r,4r)-4-((5-chloro-4-(2-(4-fluorophenyl)pyridin-4-yl)pyrimidin-2-yl)amino)cyclohexyl)acetamide] | < 500 nM |
| CC(=O)N1CCC[C@H](Nc2ncc(Cl)c(-c3ccc(=O)n(-c4ccc(F)cc4)c3)n2)C1 [Compound 143, (S)-5-(2-((1-acetylpiperidin-3-yl)amino)-5-chloropyrimidin-4-yl)-1-(4-fluorophenyl)pyridin-2(1H)-one] | 500 to 1000 nM |
| CNC(=O)[C@H]1CC[C@H](Nc2ncc(Cl)c(-c3cc(C4CC4)[nH]n3)n2)CC1 [Compound 144, trans-(1r,4r)-4-((5-chloro-4-(5-cyclopropyl-1H-pyrazol-3-yl)pyrimidin-2-yl)amino)-N-methylcyclohexane-1-carboxamide] | 1000 to 5000 nM |
| CC(=O)N[C@H]1CC[C@H](Nc2ncc(Cl)c(-c3cnn(-c4ccc(=O)[nH]c4)c3)n2)CC1 [Compound 145, trans-N-((1r,4r)-4-((5-chloro-4-(1-(6-oxo-1,6-dihydropyridin-3-yl)-1H-pyrazol-4-yl)pyrimidin-2-yl)amino)cyclohexyl)acetamide] | < 500 nM |
| CNC(=O)[C@H]1CC[C@H](Nc2ncc(Cl)c(-c3cnn(-c4ccc(=O)[nH]c4)c3)n2)CC1 [Compound 146, trans-(1r,4r)-4-((5-chloro-4-(1-(6-oxo-1,6-dihydropyridin-3-yl)-1H-pyrazol-4-yl)pyrimidin-2-yl)amino)-N-methylcyclohexane-1-carboxamide] | < 500 nM |
| CC(=O)N[C@H]1CC[C@H](Nc2ncc(Cl)c(-c3cnn(-c4cc[nH]c(=O)c4)c3)n2)CC1 [Compound 147, trans-N-((1r,4r)-4-((5-chloro-4-(1-(2-oxo-1,2-dihydropyridin-4-yl)-1H-pyrazol-4-yl)pyrimidin-2-yl)amino)cyclohexyl)acetamide] | < 500 nM |
| CNC(=O)[C@H]1CC[C@@H](Nc2ncc(Cl)c(-c3cnn(-c4cc[nH]c(=O)c4)c3)n2)CC1 [Compound 148, cis-(1s,4s)-4-((5-chloro-4-(1-(2-oxo-1,2-dihydropyridin-4-yl)-1H-pyrazol-4-yl)pyrimidin-2-yl)amino)-N-methylcyclohexane-1-carboxamide] | 1000 to 5000 nM |
| CC(=O)N[C@H]1CC[C@H](Nc2ncc(Cl)c(-c3cnn(-c4ccc[nH]c4=O)c3)n2)CC1 [Compound 149, trans-N-((1r,4r)-4-((5-chloro-4-(1-(2-oxo-1,2-dihydropyridin-3-yl)-1H-pyrazol-4-yl)pyrimidin-2-yl)amino)cyclohexyl)acetamide] | < 500 nM |
| CC(=O)N1CCC[C@H](Nc2ncc(Cl)c(-c3cccc(-c4ccc[nH]c4=O)c3)n2)C1 [Compound 152, (S)-3-(3-(2-((1-acetylpiperidin-3-yl)amino)-5-chloropyrimidin-4-yl)phenyl)pyridin-2(1H)-one] | < 500 nM |
| CC(=O)N[C@H]1CC[C@@H](Nc2ncc(Cl)c(-c3cccc(-c4ccc[nH]c4=O)c3)n2)CC1 [Compound 153, cis-N-((1s,4s)-4-((5-chloro-4-(3-(2-oxo-1,2-dihydropyridin-3-yl)phenyl)pyrimidin-2-yl)amino)cyclohexyl)acetamide] | < 500 nM |
| CC(=O)N[C@H]1CC[C@H](Nc2ncc(Cl)c(-c3cccc(-c4ccc[nH]c4=O)c3)n2)CC1 [Compound 154, trans-N-((1r,4r)-4-((5-chloro-4-(3-(2-oxo-1,2-dihydropyridin-3-yl)phenyl)pyrimidin-2-yl)amino)cyclohexyl)acetamide] | < 500 nM |
| CNC(=O)[C@H]1CC[C@H](Nc2ncc(Cl)c(-c3cccc(-c4ccc[nH]c4=O)c3)n2)CC1 [Compound 155, trans-(1r,4r)-4-((5-chloro-4-(3-(2-oxo-1,2-dihydropyridin-3-yl)phenyl)pyrimidin-2-yl)amino)-N-methylcyclohexane-1-carboxamide] | < 500 nM |
| CNC(=O)[C@H]1C[C@@H](Nc2ncc(Cl)c(-c3cccc(-c4ccc[nH]c4=O)c3)n2)C1 [Compound 156, cis-3-((5-chloro-4-(3-(2-oxo-1,2-dihydropyridin-3-yl)phenyl)pyrimidin-2-yl)amino)-N-methylcyclobutane-1-carboxamide] | < 500 nM |
| CC(=O)N1CCC[C@H](Nc2ncc(Cl)c(-c3cccc(-c4cccc(=O)[nH]4)c3)n2)C1 [Compound 157, (S)-6-(3-(2-((1-acetylpiperidin-3-yl)amino)-5-chloropyrimidin-4-yl)phenyl)pyridin-2(1H)-one] | < 500 nM |
| CC(=O)N[C@H]1CC[C@H](Nc2ncc(Cl)c(-c3cccc(-c4ccc(F)cc4)n3)n2)CC1 [Compound 158, trans-N-((1r,4r)-4-((5-chloro-4-(6-(4-fluorophenyl)pyridin-2-yl)pyrimidin-2-yl)amino)cyclohexyl)acetamide] | < 500 nM |
| CNC(=O)[C@H]1CC[C@H](Nc2ncc(Cl)c(-c3cccc(-c4ccc(F)cc4)n3)n2)CC1 [Compound 159, trans-(1r,4r)-4-((5-chloro-4-(6-(4-fluorophenyl)pyridin-2-yl)pyrimidin-2-yl)amino)-N-methylcyclohexane-1-carboxamide] | < 500 nM |
| CNC(=O)[C@H]1CC[C@H](Nc2ncc(Cl)c(-c3ccnc(-c4ccc(F)cc4)c3)n2)CC1 [Compound 160, trans-(1r,4r)-4-((5-chloro-4-(2-(4-fluorophenyl)pyridin-4-yl)pyrimidin-2-yl)amino)-N-methylcyclohexane-1-carboxamide] | < 500 nM |
| CNC(=O)[C@H]1C[C@@H](Nc2ncc(Cl)c(-c3cc(C4CC4)[nH]n3)n2)C1 [Compound 161, cis-3-((5-chloro-4-(5-cyclopropyl-1H-pyrazol-3-yl)pyrimidin-2-yl)amino)-N-methylcyclobutane-1-carboxamide] | < 500 nM |
| CNC(=O)[C@H]1C[C@H](Nc2ncc(Cl)c(-c3cc(C4CC4)[nH]n3)n2)C1 [Compound 162, trans-(1r,3r)-3-((5-chloro-4-(5-cyclopropyl-1H-pyrazol-3-yl)pyrimidin-2-yl)amino)-N-methylcyclobutane-1-carboxamide] | < 500 nM |
| CNC(=O)[C@H]1CC[C@@H](Nc2ncc(Cl)c(-c3cnn(-c4ccc(=O)[nH]c4)c3)n2)CC1 [Compound 163, cis-(1s,4s)-4-((5-chloro-4-(1-(6-oxo-1,6-dihydropyridin-3-yl)-1H-pyrazol-4-yl)pyrimidin-2-yl)amino)-N-methylcyclohexane-1-carboxamide] | 500 to 1000 nM |
| CNC(=O)[C@H]1C[C@@H](Nc2ncc(Cl)c(-c3cnn(-c4ccc(=O)[nH]c4)c3)n2)C1 [Compound 164, cis-3-((5-chloro-4-(1-(6-oxo-1,6-dihydropyridin-3-yl)-1H-pyrazol-4-yl)pyrimidin-2-yl)amino)-N-methylcyclobutane-1-carboxamide] | < 500 nM |
| CNC(=O)[C@H]1CC[C@H](Nc2ncc(Cl)c(-c3cnn(-c4cc[nH]c(=O)c4)c3)n2)CC1 [Compound 165, trans-(1r,4r)-4-((5-chloro-4-(1-(2-oxo-1,2-dihydropyridin-4-yl)-1H-pyrazol-4-yl)pyrimidin-2-yl)amino)-N-methylcyclohexane-1-carboxamide] | 500 to 1000 nM |
| CNC(=O)[C@H]1C[C@H](Nc2ncc(Cl)c(-c3cnn(-c4ccc[nH]c4=O)c3)n2)C1 [Compound 166, trans-(1r,3r)-3-((5-chloro-4-(1-(2-oxo-1,2-dihydropyridin-3-yl)-1H-pyrazol-4-yl)pyrimidin-2-yl)amino)-N-methylcyclobutane-1-carboxamide] | < 500 nM |
| CNC(=O)[C@H]1CC[C@@H](Nc2ncc(Cl)c(-c3cnn(-c4cccc(=O)[nH]4)c3)n2)CC1 [Compound 167, cis-(1s,4s)-4-((5-chloro-4-(1-(6-oxo-1,6-dihydropyridin-2-yl)-1H-pyrazol-4-yl)pyrimidin-2-yl)amino)-N-methylcyclohexane-1-carboxamide] | 500 to 1000 nM |
